Data from patent US7323433B2, “R-(-)-1-[2-(7-chlorobenzo[b]thiopen-3-yl-methoxy)-2-(2,4-dichlorophenyl)-ethyl]-1H-imidazole” (Ferrer Internacional, S.A., priority 2002, dated 2008).
Converted amounts (≈) assume the structure as drawn. Like-named read-outs stand apart in the source and are kept apart here.

Columns and labels:
Type in all cases: cell-based
[1] = tested on: Malassezia spp; experiment: MIC by modified NCCLS M27-A microdilution, Malassezia spp; settings: 11 strains, geometric mean, MIC = lowest concentration giving 50% inhibition of growth
Method: (§1) Minimal Inhibitory Concentrations (MICs) were determined by using a modification of the microdilution method M27-A recommended by the National Committee for Clinical Laboratory Standards in RPMI-1640 medium (Sigma) supplemented with glucose to a concentration of 2% and adjusted to pH 7.0 with 0.165 M morpholine propanesulfonic (MOPS) acid buffer. Serial twofold dilutions were made in modified RPMI-1640 medium from stock solutions. MICs were defined as the lowest drug concentrations resulting in 50% inhibition of growth compared to that of the growth control. […] The number of strains used in the experiments is given in parenthesis below the name of each microorganism.

[2] = tested on: Candida spp; experiment: MIC by modified NCCLS M27-A microdilution, Candida spp; settings: 42 strains, geometric mean, MIC = lowest concentration giving 50% inhibition of growth
Method: as §1

[3] = tested on: Filamentous fungi; experiment: MIC by modified NCCLS M27-A microdilution, Filamentous fungi; settings: 11 strains, geometric mean, MIC = lowest concentration giving 50% inhibition of growth
Method: as §1

[4] = tested on: Dermatophytes; experiment: MIC by modified NCCLS M27-A microdilution, Dermatophytes; settings: 17 strains, geometric mean, MIC = lowest concentration giving 50% inhibition of growth
Method: as §1

[5] = tested on: fungi and yeasts; experiment: Microbiological activity (MIC) overall, comparison of enantiomers and racemate
Method: as §1

[6] = RPMI-1640 2% glucose pH 7.0, read-out: MIC

Compound | MIC ([1]; RPMI-1640 2% glucose pH 7.0) [µg/mL] | MIC ([2]; RPMI-1640 2% glucose pH 7.0) [µg/mL] | MIC ([3]; RPMI-1640 2% glucose pH 7.0) [µg/mL] | MIC ([4]; RPMI-1640 2% glucose pH 7.0) [µg/mL] | microbiological activity in comparison with R-(−)sertaconazole ([5]; in words, from Table 1) | MIC [1, 6] [µg/mL] | MIC [2, 6] [µg/mL] | MIC [3, 6] [µg/mL] | MIC [4, 6] [µg/mL] | activity compared with the racemic mixture ([5]; against both fungi and yeasts, as shown in Table 1)
Clc1ccc([C@@H](Cn2ccnc2)OCc2csc3c(Cl)cccc23)c(Cl)c1.O=[N+]([O-])O (single isomer, unassigned) [S-(+)enantiomer] | 10.96 | 3.217 | 16 | 0.17 | much less active |  |  |  |  | 
Clc1ccc([C@H](Cn2ccnc2)OCc2csc3c(Cl)cccc23)c(Cl)c1.O=[N+]([O-])O [R-(−)enantiomer, (R)-(−)-1-[2-(7-chlorobenzo[b]thiophen-3-yl-methoxy)-2-(2,4-dichlorophenyl)-ethyl]-1H-imidazole mononitrate] |  |  |  |  |  | 0.64 | 0.125 | 1.76 | 0.04 | about 2 times
Clc1ccc(C(Cn2ccnc2)OCc2csc3c(Cl)cccc23)c(Cl)c1 (racemic) [Racemate, 1-[2-(7-chlorobenzo[b]thiophen-3-yl-methoxy)-2-(2,4-dichlorophenyl)-ethyl]-1H-imidazole] |  |  |  |  |  | 1.37 (≈ 3.13 µM) | 0.256 (≈ 0.585 µM) | 3.11 (≈ 7.1 µM) | 0.08 (≈ 0.183 µM) | 
